Target: T1, GPR120 (Homo sapiens, UniProt Q5NUL3)
T1 construct: expressed in transfected cells; host or cells: CHO mitoPhotinaGPR120 cells
T1 sequence (Q5NUL3 1-361): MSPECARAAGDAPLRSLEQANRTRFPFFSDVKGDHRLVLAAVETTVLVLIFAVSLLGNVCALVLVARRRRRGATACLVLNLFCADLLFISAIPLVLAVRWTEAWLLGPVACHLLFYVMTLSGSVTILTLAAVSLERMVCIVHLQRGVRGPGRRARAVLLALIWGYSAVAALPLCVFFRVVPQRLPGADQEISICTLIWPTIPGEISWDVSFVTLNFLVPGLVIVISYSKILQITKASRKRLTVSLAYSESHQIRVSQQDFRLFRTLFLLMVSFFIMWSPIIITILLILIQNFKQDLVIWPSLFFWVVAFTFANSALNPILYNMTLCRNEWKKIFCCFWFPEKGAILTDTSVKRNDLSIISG
Assay: GPR120 agonism in CHO mitoPhotinaGPR120 cell based assay with fluorescent (Fluo-8 calcium, FLIPRTetra) readout, Agonist Mode, dose response
Conditions: CHO mitoPhotinaGPR120 cells, Fluo-8 No Wash Ca2+ dye, dose response in quadruplicate, 0.0033% fatty acid free BSA
Procedure: Compounds of the invention were tested for GPR120 agonism in a CHO mitoPhotinaGPR120 cell based assay with fluorescent readout in Agonist Mode in dose response in quadruplicate with intra-plate modality.
Twenty (20) h after seeding, growth medium was manually removed and cells were starved in the presence of 25 μL/w of Standard Tyrode's Buffer. After 3 h, cells were loaded with 20 μL/w of 0.5× Fluo-8 No Wash (AAT Bioquest, Inc.) Ca2+ sensitive dye prepared in Standard Tyrode's Buffer. Cells were incubated for 1 h at room temperature in the dark. Ten (10) μL/w 3× of controls and compounds were diluted in Standard Tyrode's Buffer+0.01% fatty acid free BSA (final concentration=0.0033%) and injected at the FLIPRTetra®, recording the kinetic calcium traces for 3 minutes. Standard Tyrode's buffer composition: 5 mM KCl, 130 mM NaCl, 2 mM CaCl2), 5 mM NaHCO3, 1 mM MgCl2, 20 mM HEPES, pH7.4.

Structure (SMILES) | EC50 [µM]
Cc1nn(-c2ncccn2)c(COc2ccc(CCO)cc2)c1C#N [Example 105, 5-[[4-(2-hydroxyethyl)phenoxy]methyl]-3-methyl-1-pyrimidin-2-yl-pyrazole-4-carbonitrile] | 12.6
Cc1nn(-c2cccnn2)c(COc2ccc(CCO)cc2)c1C#N [Example 106, 5-[[4-(2-hydroxyethyl)phenoxy]methyl]-3-methyl-1-pyridazin-3-yl-pyrazole-4-carbonitrile] | 2.49
Cc1nn(-c2c(F)cccc2F)c(COc2ccc(CCO)cc2)c1C#N [Example 112, 1-(2,6-difluorophenyl)-5-[[4-(2-hydroxyethyl)phenoxy]methyl]-3-methyl-pyrazole-4-carbonitrile] | 10.2
Cc1nn(-c2ccc(F)cc2F)c(COc2ccc(CCO)cc2)c1C#N [Example 114, 1-(2,4-difluorophenyl)-5-[[4-(2-hydroxyethyl)phenoxy]methyl]-3-methyl-pyrazole-4-carbonitrile] | 5.55
Cc1nn(-c2ccc(Cl)nn2)c(COc2ccc(CCO)cc2)c1C#N [Example 116, 1-(6-chloropyridazin-3-yl)-5-[[4-(2-hydroxyethyl)phenoxy]methyl]-3-methyl-pyrazole-4-carbonitrile] | 1.63
Cc1nn(C2CCCC2)c(COc2ccc(CCO)cc2)c1C#N [Example 117, 1-cyclopentyl-5-[[4-(2-hydroxyethyl)phenoxy]methyl]-3-methyl-pyrazole-4-carbonitrile] | 1.2
Cc1nn(C2CCCCC2)c(COc2ccc(CCO)cc2)c1C#N [Example 118, 1-cyclohexyl-5-[[4-(2-hydroxyethyl)phenoxy]methyl]-3-methyl-pyrazole-4-carbonitrile] | 2.24
Cc1cc(COc2ccc(CCO)cc2)n(-c2ccccc2)n1 [Example 126, 2-[4-[(5-methyl-2-phenyl-pyrazol-3-yl)methoxy]phenyl]ethanol] | 5.92
Cc1nn(-c2ccccc2)c(COc2c(F)cc(CCC(=O)O)cc2F)c1C#N [Example 133, 3-[4-[(4-cyano-5-methyl-2-phenyl-pyrazol-3-yl)methoxy]-3,5-difluoro-phenyl]propanoic acid] | 9.73
Cc1nn(-c2ccccc2)c(COc2ccc(CO)cc2C(F)(F)F)c1C#N [Example 147, 5-[[4-(hydroxymethyl)-2-(trifluoromethyl)phenoxy]methyl]-3-methyl-1-phenyl-pyrazole-4-carbonitrile] | 1.49
Cc1nn(C2CCCC2)c(COc2ccc(CCCO)cc2)c1C#N [Example 153, 1-cyclopentyl-5-[[4-(3-hydroxypropyl)phenoxy]methyl]-3-methyl-pyrazole-4-carbonitrile] | 0.18
Cc1nn(-c2ccc(F)cn2)c(COc2ccc(CCCO)cc2)c1C#N [Example 154, 1-(5-fluoro-2-pyridyl)-5-[[4-(3-hydroxypropyl)phenoxy]methyl]-3-methyl-pyrazole-4-carbonitrile] | 0.21
Cc1nn(-c2ccc(Cl)cn2)c(COc2ccc(CCCO)cc2)c1C#N [Example 155, 1-(5-chloro-2-pyridyl)-5-[[4-(3-hydroxypropyl)phenoxy]methyl]-3-methyl-pyrazole-4-carbonitrile] | 0.81
Cc1ccc(-n2nc(C)c(C#N)c2COc2ccc(CCCO)cc2)nc1 [Example 156, 5-[[4-(3-hydroxypropyl)phenoxy]methyl]-3-methyl-1-(5-methyl-2-pyridyl)pyrazole-4-carbonitrile] | 0.19
COc1ccc(-n2nc(C)c(C#N)c2COc2ccc(CCCO)cc2)nc1 [Example 157, 5-[[4-(3-hydroxypropyl)phenoxy]methyl]-1-(5-methoxy-2-pyridyl)-3-methyl-pyrazole-4-carbonitrile] | 0.28
Cc1nn(-c2ccccn2)c(COc2c(F)cc(CCCO)cc2F)c1C#N [Example 158, 5-[[2,6-difluoro-4-(3-hydroxypropyl)phenoxy]methyl]-3-methyl-1-(2-pyridyl)pyrazole-4-carbonitrile] | 0.13
Cc1ccc(-n2nc(C)c(C#N)c2COc2c(F)cc(CCCO)cc2F)cc1 [Example 159, 5-[[2,6-difluoro-4-(3-hydroxypropyl)phenoxy]methyl]-3-methyl-1-(p-tolyl)pyrazole-4-carbonitrile] | 0.19
CCc1ccc(-n2nc(C)c(C#N)c2COc2c(F)cc(CCCO)cc2F)cc1 [Example 160, 5-[[2,6-difluoro-4-(3-hydroxypropyl)phenoxy]methyl]-1-(4-ethylphenyl)-3-methyl-pyrazole-4-carbonitrile] | 0.3
COc1ccc(-n2nc(C)c(C#N)c2COc2c(F)cc(CCCO)cc2F)cc1 [Example 161, 5-[[2,6-difluoro-4-(3-hydroxypropyl)phenoxy]methyl]-1-(4-methoxyphenyl)-3-methyl-pyrazole-4-carbonitrile] | 0.23
Cc1nn(-c2ccc(Cl)cc2)c(COc2c(F)cc(CCCO)cc2F)c1C#N [Example 162, 1-(4-chlorophenyl)-5-[[2,6-difluoro-4-(3-hydroxypropyl)phenoxy]methyl]-3-methyl-pyrazole-4-carbonitrile] | 0.43
Cc1nn(C2CCCC2)c(COc2c(F)cc(CCCO)cc2F)c1C#N [Example 163, 1-cyclopentyl-5-[[2,6-difluoro-4-(3-hydroxypropyl)phenoxy]methyl]-3-methyl-pyrazole-4-carbonitrile] | 0.099
Cc1nn(-c2ccc(F)cn2)c(COc2c(F)cc(CCCO)cc2F)c1C#N [Example 164, 5-[[2,6-difluoro-4-(3-hydroxypropyl)phenoxy]methyl]-1-(5-fluoro-2-pyridyl)-3-methyl-pyrazole-4-carbonitrile] | 0.19
Cc1ccc(-n2nc(C)c(C#N)c2COc2c(F)cc(CCCO)cc2F)nc1 [Example 165, 5-[[2,6-difluoro-4-(3-hydroxypropyl)phenoxy]methyl]-3-methyl-1-(5-methyl-2-pyridyl)pyrazole-4-carbonitrile] | 0.17

The next lines start with the values.

EC50 [µM] | Structure (SMILES)
10.4 | Cc1nn(-c2ccncc2)c(COc2ccc(CCO)cc2)c1C#N [Example 104, 5-[[4-(2-hydroxyethyl)phenoxy]methyl]-3-methyl-1-(4-pyridyl)pyrazole-4-carbonitrile]
8.15 | Cc1nn(-c2ccc(C#N)cc2)c(COc2ccc(CCO)cc2)c1C#N [Example 107, 1-(4-cyanophenyl)-5-[[4-(2-hydroxyethyl)phenoxy]methyl]-3-methyl-pyrazole-4-carbonitrile]
3.22 | Cc1nn(-c2ccc(C(F)(F)F)cc2)c(COc2ccc(CCO)cc2)c1C#N [Example 109, 5-[[4-(2-hydroxyethyl)phenoxy]methyl]-3-methyl-1-[4-(trifluoromethyl)phenyl]pyrazole-4-carbonitrile]
4.62 | Cc1nn(-c2ccc(OC(F)(F)F)cc2)c(COc2ccc(CCO)cc2)c1C#N [Example 115, 5-[[4-(2-hydroxyethyl)phenoxy]methyl]-3-methyl-1-[4-(trifluoromethoxy)phenyl]pyrazole-4-carbonitrile]
3.33 | N#Cc1cnn(-c2ccccc2)c1COc1ccc(CCO)cc1 [Example 129, 5-[[4-(2-hydroxyethyl)phenoxy]methyl]-1-phenyl-pyrazole-4-carbonitrile]
0.19 | N#Cc1cnn(-c2ccccc2)c1COc1ccc(CCCO)cc1 [Example 130, 5-[[4-(3-hydroxypropyl)phenoxy]methyl]-1-phenyl-pyrazole-4-carbonitrile]
17.7 | Cc1nn(-c2ccccc2)c(COc2ccc(CCC3CCNCC3)cc2)c1C#N [Example 136, 3-methyl-1-phenyl-5-[[4-[2-(4-piperidyl)ethyl]phenoxy]methyl]pyrazole-4-carbonitrile]
3.36 | Cc1nn(-c2ccccc2)c(COc2ccc(-c3nc(CO)cs3)cc2)c1C#N [Example 146, 5-[[4-[4-(hydroxymethyl)thiazol-2-yl]phenoxy]methyl]-3-methyl-1-phenyl-pyrazole-4-carbonitrile]
0.15 | Cc1nn(-c2ccccn2)c(COc2ccc(CCCO)cc2)c1C#N [Example 149, 5-[[4-(3-hydroxypropyl)phenoxy]methyl]-3-methyl-1-(2-pyridyl)pyrazole-4-carbonitrile]
0.15 | Cc1ccc(-n2nc(C)c(C#N)c2COc2ccc(CCCO)cc2)cc1 [Example 150, 5-[[4-(3-hydroxypropyl)phenoxy]methyl]-3-methyl-1-(p-tolyl)pyrazole-4-carbonitrile]
0.24 | CCc1ccc(-n2nc(C)c(C#N)c2COc2ccc(CCCO)cc2)cc1 [Example 151, 1-(4-ethylphenyl)-5-[[4-(3-hydroxypropyl)phenoxy]methyl]-3-methyl-pyrazole-4-carbonitrile]
0.51 | Cc1nn(-c2ccc(Cl)cc2)c(COc2ccc(CCCO)cc2)c1C#N [Example 152, 1-(4-chlorophenyl)-5-[[4-(3-hydroxypropyl)phenoxy]methyl]-3-methyl-pyrazole-4-carbonitrile]

Reference: patent publication US11597702B2, “Substituted pyrazoles FFA4/GPR120 receptor agonists” (AXXAM S.P.A., priority 2018, dated 2023)
